Source: article PMC7144182, “Synthesis, biological evaluation and molecular modelling of 2,4-disubstituted-5-(6-alkylpyridin-2-yl)-1H-imidazoles as ALK5 inhibitors” (Journal of Enzyme Inhibition and Medicinal Chemistry, 2020)
Several values for one entry are separate records, joined by “and”; a condition that tells them apart may be missing. Equal values may be shown once. Marks after values point to notes of the source that are not given here.

Key:
[1] = target: T1, purified human ALK5 kinase domain (Homo sapiens, UniProt P36897); experiment: ALK5 kinase assay (33PanQinase, casein as substrate); format: biochemical; conditions: for IC50: casein substrate, 1 μM ATP, singlicate (11e: mean of triplicates); for fold more potent than the benzo[1,3]dioxol-5-yl analogue: 11a vs 7a, 16a vs 7b; for fold less potent than the corresponding 6-methylpyridyl analogue / fold more inhibiting than the respective methylene linker analogue: vs 11a; for fold less potent than the corresponding 6-methylpyridyl analogue: 11e, 16a, 16e respectively; for fold more inhibiting than the corresponding m-CONH2 analogues 16e and 16f: ethylene linker series; for fold more inhibiting than the respective methylene linker analogue: 11b, 11c, 11g respectively
T1 construct: using the purified human ALK5 kinase domain produced in Sf9 insect cells; host or cells: Sf9 insect cells
T1 sequence (P36897 205-495 limits assumed): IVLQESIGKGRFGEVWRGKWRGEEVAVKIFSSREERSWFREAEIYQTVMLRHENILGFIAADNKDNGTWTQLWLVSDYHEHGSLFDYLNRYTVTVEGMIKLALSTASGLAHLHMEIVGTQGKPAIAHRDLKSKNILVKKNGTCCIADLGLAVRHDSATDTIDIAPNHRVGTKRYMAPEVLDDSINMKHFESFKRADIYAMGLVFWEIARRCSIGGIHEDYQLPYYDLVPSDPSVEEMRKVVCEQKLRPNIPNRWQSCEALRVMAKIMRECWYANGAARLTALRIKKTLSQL
Experimental: To evaluate whether these potential inhibitors 7a–c, 11a–h, and 16a–h could inhibit ALK5, a kinase assay was performed using the purified human ALK5 kinase domain produced in Sf9 insect cells and casein as a substrate (Table 1).

[2] = test system: TGF-β1-induced luciferase reporter activity, HaCaT (3TP-luc) stable cells; experiment: Cell-based p3TP-luciferase reporter assay; conditions: for % inhibition in luciferase reporter assay: 0.1 µM inhibitor; for p3TP-luciferase activity (% control): 0.1 μM inhibitor, TGF-β1 2 ng/mL, 24 h, mean ± SD of three independent experiments
Experimental: To establish HaCaT (3TP-luc) stable cells, cells were seeded on six-well plates. Cells were allowed to adhere overnight and then transfected with the p3TP-luc (neo) expression plasmid using PEI reagent (Sigma Aldrich). Transfected cells were cultured for four weeks in the presence of G418 (500 µg/mL). Several single clones were isolated and measured luciferase activity. The clone showing response to TGF-β1 treatment was used for reporter assay. HaCaT (3TP-luc) stable cells were seeded at 2.5 × 10^4 cells/well in 96-well plate and were allowed to adhere overnight. Cells were concomitantly treated with TGF-β1 (2 ng/mL) and indicated concentrations of ALK5 inhibitors in 0.2% FBS medium and incubated for 24 h at 37 °C in 5% CO2. Cell lysates were prepared using Luciferase Assay System (Promega) according to the manufacturer’s instruction, and luminescence was measured by a luminometer, Micro Lumat Plus (Berthold, Germany).

Caco-2 cells = experiment: Caco-2 cell permeability assay; format: in vitro ADME; conditions: 100 µM, AP to BL, 2 h; mean ± SD of quadruplicates
Experimental: Caco-2 cells were seeded in Transwell® polycarbonate filter at a density of 8 × 10^4 cells/filter and cultured for 21 days. Culture medium was removed from both apical (AP) and basolateral (BL) chambers of transwell, and the wells were rinsed three times with PBS. AP buffer (HBSS, pH 6.5) containing 10 mM MES and BL buffer (HBSS, pH 7.4) containing 10 mM HEPES were loaded in AP (500 µL) and BL (1500 µL) chambers, respectively, followed by incubation for 30 min at 37 °C. Then, test compound (100 µM) was added to the AP side and incubated for 2 h at 37 °C. After the incubation, BL buffer was collected and analysed using an UV spectrophotometer at a maximum wavelength (wavelength 225–357 nm).
To estimate oral absorption of target compounds, their permeability in a Caco-2 monolayer was evaluated at a concentration of 100 µM (Table 1).

SMILES	IC50 [1]	% inhibition in luciferase reporter assay [2]	p3TP-luciferase activity (% control) [2]	Caco-2 permeability (%) (Caco-2 cells)	fold higher ALK5 inhibitory activity than 7a ([1]; kinase assay)	fold higher ALK5 inhibitory activity than 7c ([1]; kinase assay)	fold more potent than the benzo[1,3]dioxol-5-yl analogue ([1]; kinase assay)	fold less potent than the corresponding 6-methylpyridyl analogue ([1]; kinase assay)	fold more inhibiting than the corresponding m-CONH2 analogues 16e and 16f [1]	fold more inhibiting than the respective methylene linker analogue [1]
Cc1cccc(-c2[nH]c(Cc3ccc(C(N)=O)cc3)nc2-c2ccc3c(c2)OCO3)n1 [Compound 7a, 4-((4-(Benzo[d][1,3]dioxol-5-yl)-5-(6-methylpyridin-2-yl)-1H-imidazol-2-yl)methyl)benzamide]	224 nM	72 % inhibition	28 ± 7.1 % control	35 ± 0.7^f %						
Cc1cccc(-c2[nH]c(CCc3ccc(C(N)=O)cc3)nc2-c2ccc3c(c2)OCO3)n1 [Compound 7b, 4-(2-(4-(Benzo[d][1,3]dioxol-5-yl)-5-(6-methylpyridin-2-yl)-1H-imidazol-2-yl)ethyl)benzamide]	93 nM	74 % inhibition	26 ± 7.9 % control	23 ± 3.0%	2.4 fold	3.6 fold				
Cc1cccc(-c2[nH]c(CCCc3ccc(C(N)=O)cc3)nc2-c2ccc3c(c2)OCO3)n1 [Compound 7c, 4-(3-(4-(Benzo[d][1,3]dioxol-5-yl)-5-(6-methylpyridin-2-yl)-1H-imidazol-2-yl)propyl)benzamide]	338 nM	40 % inhibition	60 ± 9.5 % control	32 ± 1.1%						
Cc1cccc(-c2[nH]c(Cc3ccc(C(N)=O)cc3)nc2-c2ccc3nccnc3c2)n1 [Compound 11a, 4-((5-(6-Methylpyridin-2-yl)-4-(quinoxalin-6-yl)-1H-imidazol-2-yl)methyl)benzamide]	88 nM	84 % inhibition	16 ± 4.5 % control	25 ± 1.3%			2.5 fold			
CCc1cccc(-c2[nH]c(Cc3ccc(C(N)=O)cc3)nc2-c2ccc3nccnc3c2)n1 [Compound 11b, 4-((5-(6-Ethylpyridin-2-yl)-4-(quinoxalin-6-yl)-1H-imidazol-2-yl)methyl)benzamide]	112 nM		33 ± 21.3 % control	26 ± 3.5%				1.3 fold		
CC(C)c1cccc(-c2[nH]c(Cc3ccc(C(N)=O)cc3)nc2-c2ccc3nccnc3c2)n1 [Compound 11c, 4-((5-(6-Isopropylpyridin-2-yl)-4-(quinoxalin-6-yl)-1H-imidazol-2-yl)methyl)benzamide]	2190 nM		39 ± 11.4 % control	30 ± 9.0%				13–35 fold		
CCCCc1cccc(-c2[nH]c(Cc3ccc(C(N)=O)cc3)nc2-c2ccc3nccnc3c2)n1 [Compound 11d, 4-((5-(6-n-Butylpyridin-2-yl)-4-(quinoxalin-6-yl)-1H-imidazol-2-yl)methyl)benzamide]	2700 nM		85 ± 32.5 % control	41 ± 5.3%						
CCc1cccc(-c2[nH]c(Cc3cccc(C(N)=O)c3)nc2-c2ccc3nccnc3c2)n1 [Compound 11f, 3-((5-(6-Ethylpyridin-2-yl)-4-(quinoxalin-6-yl)-1H-imidazol-2-yl)methyl)benzamide]	75 nM		17 ± 3.7 % control	38 ± 13.8%				2.1 fold		
CC(C)c1cccc(-c2[nH]c(Cc3cccc(C(N)=O)c3)nc2-c2ccc3nccnc3c2)n1 [Compound 11g, 3-((5-(6-Isopropylpyridin-2-yl)-4-(quinoxalin-6-yl)-1H-imidazol-2-yl)methyl)benzamide]	1250 nM		69 ± 6.7 % control	34 ± 15.6%				13–35 fold		
CCCCc1cccc(-c2[nH]c(Cc3cccc(C(N)=O)c3)nc2-c2ccc3nccnc3c2)n1 [Compound 11h, 3-((5-(6-n-Butylpyridin-2-yl)-4-(quinoxalin-6-yl)-1H-imidazol-2-yl)methyl)benzamide]	1040 nM		83 ± 21.1 % control							
Cc1cccc(-c2[nH]c(CCc3ccc(C(N)=O)cc3)nc2-c2ccc3nccnc3c2)n1 [Compound 16a, 4-(2-(5-(6-Methylpyridin-2-yl)-4-(quinoxalin-6-yl)-1H-imidazol-2-yl)ethyl)benzamide]	30 nM	85 % inhibition	15 ± 8.2 % control	45 ± 5.3%			3.1 fold		1.6 fold	2.9 fold
CCc1cccc(-c2[nH]c(CCc3ccc(C(N)=O)cc3)nc2-c2ccc3nccnc3c2)n1 [Compound 16b, 4-(2-(5-(6-Ethylpyridin-2-yl)-4-(quinoxalin-6-yl)-1H-imidazol-2-yl)ethyl)benzamide]	41 nM	84 % inhibition	16 ± 8.4 % control	25 ± 3.7%				1.4 fold	1.6 fold	2.7 fold
CC(C)c1cccc(-c2[nH]c(CCc3ccc(C(N)=O)cc3)nc2-c2ccc3nccnc3c2)n1 [Compound 16c, 4-(2-(5-(6-Isopropylpyridin-2-yl)-4-(quinoxalin-6-yl)-1H-imidazol-2-yl)ethyl)benzamide]	653 nM		85 ± 38.9 % control	23 ± 3.1%				13–35 fold		3.4 fold
CCCCc1cccc(-c2[nH]c(CCc3ccc(C(N)=O)cc3)nc2-c2ccc3nccnc3c2)n1 [Compound 16d, 4-(2-(5-(6-n-Butylpyridin-2-yl)-4-(quinoxalin-6-yl)-1H-imidazol-2-yl)ethyl)benzamide]	2380 nM		76 ± 5.7 % control	24 ± 1.9%						
Cc1cccc(-c2[nH]c(CCc3cccc(C(N)=O)c3)nc2-c2ccc3nccnc3c2)n1 [Compound 16e, 3-(2-(5-(6-Methylpyridin-2-yl)-4-(quinoxalin-6-yl)-1H-imidazol-2-yl)ethyl)benzamide]	47 nM	93 % inhibition	7 ± 0.7 % control	21 ± 9.5%						
CCc1cccc(-c2[nH]c(CCc3cccc(C(N)=O)c3)nc2-c2ccc3nccnc3c2)n1 [Compound 16f, 3-(2-(5-(6-Ethylpyridin-2-yl)-4-(quinoxalin-6-yl)-1H-imidazol-2-yl)ethyl)benzamide]	66 nM		56 ± 14.6 % control	6% and 6 ± 4.1%				1.4 fold		
